Laboratory results as given in patent US10131702B2, “Glucagon-GLP-1-GIP triple agonist compounds” (priority 2013, dated 2018).
Read-outs that look alike come from different tables or passages of the source. Numbered stars: 1 amine (or outer) side, 2 acyl side, 3 side chain; on linkers, the order of the positions; unused ones are H or OH. Square brackets hold non-standard residues; d marks the D form. Side chains are listed from the residue outwards. Peptide text beside a SMILES is read from it. * marks the point of attachment. C18 diacid = O=C(O)CCCCCCCCCCCCCCCCC(=O)*; γGlu = O=C(O)[C@H](CCC(=O)[*:2])N[*:1]; AEEA = NCCOCCOCC(=O)O; Aib = CC(C)(N)C(=O)O

Key:
Format in all cases: cell-based
human GLP-1 R = target: T1, human GLP-1 R (Homo sapiens, UniProt P43220); assay: cAMP induction in HEK293 cells expressing human GLP-1 R (AlphaScreen cAMP kit); settings: average EC50, cAMP, HEK293 cells expressing human GLP-1 R, read-out: GLP1 R (EC50 in nM)
T1 construct: expressed in transfected cells
Description: Briefly, HEK293 cells expressing the human GIP R, GLP-1 R or GCG R (stable cell lines generated through transfection of the cDNA for human GIP R, GLP-1 R or GCG R and selection of stable clones) were seeded at 30,000 cells/well in 96-well microtiter plates coated with 0.01% poly-L-lysine, and grown for 1 day in culture in 200 μl growth medium (DMEM, 10% FCS, Penicillin (100 IU/ml), Streptomycin (100 μg/ml)). On the day of analysis, growth medium was removed and the cells were washed once with 150 μl Tyrode's buffer (Tyrode's Salts (9.6 g/l), 10 mM HEPES, pH 7.4). […] The Assay buffer was removed and cells are lysed in 80 μl Lysis buffer (0.1% w/v BSA, 5 mM HEPES, 0.3% v/v Tween-20) per well. From each well 10 μl of lysed cells were transferred to a 384-well plate and mixed with 15 μl bead-mix (1 Unit/15 μl anti-cAMP Acceptor Beads, 1 Unit/15 μl Donor Beads, and 1 Unit/15 μl Biotinylated cAMP in Assay Buffer). The plates were mixed and incubated in the dark for an hour at room temperature before measuring using an Envision™ plate reader (Perkin-Elmer).
The resulting cAMP curves were plotted as absolute cAMP concentrations (nM) over log (test compound concentration) and analyzed using the curve fitting program XLfit.
Parameters calculated to describe both the potency as well as the agonistic activity of each test compound on the receptors were:
EC50, a concentration resulting in a half-maximal elevation of cAMP levels, reflecting the potency of the test compound.

human GCG R = target: T2, human GCG R (Homo sapiens, UniProt P47871); assay: cAMP induction in HEK293 cells expressing human GCG R (AlphaScreen cAMP kit)
T2 construct: expressed in transfected cells

human GIP R = target: T3, human GIP R (Homo sapiens, UniProt P48546); assay: cAMP induction in HEK293 cells expressing human GIP R (AlphaScreen cAMP kit)
T3 construct: expressed in transfected cells
T3 sequence (P48546 22-466): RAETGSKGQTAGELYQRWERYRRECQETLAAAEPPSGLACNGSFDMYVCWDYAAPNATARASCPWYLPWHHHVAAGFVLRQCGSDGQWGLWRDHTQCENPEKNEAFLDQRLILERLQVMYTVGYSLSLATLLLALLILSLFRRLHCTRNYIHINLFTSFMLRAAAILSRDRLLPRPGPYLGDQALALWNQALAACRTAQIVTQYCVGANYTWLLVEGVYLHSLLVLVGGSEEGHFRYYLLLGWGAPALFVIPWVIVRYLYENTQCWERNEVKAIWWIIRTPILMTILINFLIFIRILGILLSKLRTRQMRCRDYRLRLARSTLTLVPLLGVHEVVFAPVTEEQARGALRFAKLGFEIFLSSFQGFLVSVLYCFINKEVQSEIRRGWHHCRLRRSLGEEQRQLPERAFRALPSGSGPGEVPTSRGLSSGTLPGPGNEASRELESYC

[1] = GIP R (EC50 in nM), Table 2, average EC50, cAMP
[2] = GIP R (EC50 in nM), Table 2b (most comprehensive data), average EC50, cAMP
[3] = Table 2b (most comprehensive data)

T2 sequence (P47871 26-477): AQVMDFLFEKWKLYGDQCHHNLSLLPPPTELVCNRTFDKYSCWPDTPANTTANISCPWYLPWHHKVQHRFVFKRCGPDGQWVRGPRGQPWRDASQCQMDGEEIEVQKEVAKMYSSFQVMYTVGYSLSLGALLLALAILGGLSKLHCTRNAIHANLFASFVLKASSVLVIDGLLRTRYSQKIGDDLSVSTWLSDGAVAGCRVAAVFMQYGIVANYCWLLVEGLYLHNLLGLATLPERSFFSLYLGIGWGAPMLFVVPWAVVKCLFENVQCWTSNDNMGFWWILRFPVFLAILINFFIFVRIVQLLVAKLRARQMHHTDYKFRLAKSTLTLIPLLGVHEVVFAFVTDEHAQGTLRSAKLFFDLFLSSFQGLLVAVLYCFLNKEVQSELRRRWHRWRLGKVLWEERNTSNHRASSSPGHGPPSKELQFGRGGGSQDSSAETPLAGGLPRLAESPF
T1 sequence (P43220 24-463): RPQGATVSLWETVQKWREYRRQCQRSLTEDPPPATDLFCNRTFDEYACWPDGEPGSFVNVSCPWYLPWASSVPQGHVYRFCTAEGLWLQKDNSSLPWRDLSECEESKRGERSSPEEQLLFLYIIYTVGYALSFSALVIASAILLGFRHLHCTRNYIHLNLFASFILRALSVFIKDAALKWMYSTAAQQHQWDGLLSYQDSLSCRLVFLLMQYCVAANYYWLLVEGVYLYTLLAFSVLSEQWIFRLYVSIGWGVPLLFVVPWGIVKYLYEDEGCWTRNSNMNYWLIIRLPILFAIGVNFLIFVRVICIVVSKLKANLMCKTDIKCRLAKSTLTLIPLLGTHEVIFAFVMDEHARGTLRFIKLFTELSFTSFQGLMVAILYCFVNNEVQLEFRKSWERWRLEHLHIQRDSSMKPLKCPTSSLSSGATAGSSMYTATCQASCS

CCCCCCCCCCCCCCCC(=O)N[C@@H](CCC(=O)NCCCC[C@H](NC(=O)[C@H](CCCCN)NC(=O)[C@H](CCC(=O)O)NC(=O)[C@H](CC(C)C)NC(=O)[C@H](Cc1ccc(O)cc1)NC(=O)[C@@H](NC(=O)[C@H](CO)NC(=O)[C@H](Cc1ccc(O)cc1)NC(=O)[C@H](CC(=O)O)NC(=O)[C@H](CO)NC(=O)[C@@H](NC(=O)[C@H](Cc1ccccc1)NC(=O)[C@@H](NC(=O)CNC(=O)[C@H](CCC(N)=O)NC(=O)C(C)(C)NC(=O)[C@@H](N)Cc1ccc(O)cc1)[C@@H](C)O)[C@@H](C)O)[C@@H](C)CC)C(=O)N[C@@H](C)C(=O)N[C@@H](C)C(=O)N[C@@H](CCCCN)C(=O)N[C@@H](CCC(=O)O)C(=O)N[C@@H](Cc1ccccc1)C(=O)N[C@H](C(=O)N[C@@H](CCC(=O)O)C(=O)N[C@@H](Cc1c[nH]c2ccccc12)C(=O)N[C@@H](CC(C)C)C(=O)N[C@@H](CC(C)C)C(=O)N[C@@H](CO)C(=O)N[C@@H](C)C(N)=O)C(C)C)C(=O)O [Compound 23] (HELM PEPTIDE1{Y.[Aib].Q.G.T.F.T.S.D.Y.S.I.Y.L.E.K.K.A.A.K.E.F.V.E.W.L.L.S.A.[am]}|PEPTIDE2{[CCCCCCCCCCCCCCCC(=O)[*:2]].[gGlu]}$PEPTIDE1,PEPTIDE2,17:R3-2:R2$$$V2.0)
EC50 (human GLP-1 R; Table 2): 0.11 nM
EC50 (human GCG R; Table 2, average EC50, cAMP, HEK293 cells expressing human GCG R, read-out: GCG R (EC50 in nM)): 0.14 nM
EC50 (human GIP R; Table 2, average EC50, cAMP, read-out: GIP R (EC50 in nM)): 0.13 nM

CC[C@H](C)[C@H](NC(=O)[C@H](CO)NC(=O)[C@H](Cc1ccc(O)cc1)NC(=O)[C@H](CC(=O)O)NC(=O)[C@H](CO)NC(=O)[C@@H](NC(=O)[C@H](Cc1ccccc1)NC(=O)[C@@H](NC(=O)CNC(=O)[C@H](CCC(N)=O)NC(=O)C(C)(C)NC(=O)[C@@H](N)Cc1ccc(O)cc1)[C@@H](C)O)[C@@H](C)O)C(=O)N[C@@H](Cc1ccc(O)cc1)C(=O)N[C@@H](CC(C)C)C(=O)N[C@@H](CC(=O)O)C(=O)N[C@@H](CO)C(=O)N[C@@H](CCCCN)C(=O)N[C@@H](C)C(=O)N[C@@H](C)C(=O)N[C@@H](Cc1c[nH]cn1)C(=O)N[C@@H](CC(=O)O)C(=O)N[C@@H](Cc1ccccc1)C(=O)N[C@H](C(=O)N[C@@H](CCC(=O)O)C(=O)N[C@@H](Cc1c[nH]c2ccccc12)C(=O)N[C@@H](CC(C)C)C(=O)N[C@@H](CC(C)C)C(=O)N[C@@H](CCCNC(=N)N)C(=O)N[C@@H](C)C(N)=O)C(C)C [Compound 12] (HELM PEPTIDE1{Y.[Aib].Q.G.T.F.T.S.D.Y.S.I.Y.L.D.S.K.A.A.H.D.F.V.E.W.L.L.R.A.[am]}$$$$V2.0)
EC50 (human GLP-1 R; Table 2): 0.012 nM
EC50 (human GCG R): 0.076 nM
EC50 (human GIP R; [1]): 0.084 nM
EC50 (human GIP R; [2]): 0.012 nM

CC[C@H](C)[C@H](NC(=O)[C@H](CO)NC(=O)[C@H](Cc1ccc(O)cc1)NC(=O)[C@H](CC(=O)O)NC(=O)[C@H](CO)NC(=O)[C@@H](NC(=O)[C@H](Cc1ccccc1)NC(=O)[C@@H](NC(=O)CNC(=O)[C@H](CCC(N)=O)NC(=O)C(C)(C)NC(=O)[C@@H](N)Cc1ccc(O)cc1)[C@@H](C)O)[C@@H](C)O)C(=O)N[C@@H](Cc1ccc(O)cc1)C(=O)N[C@@H](CC(C)C)C(=O)N[C@@H](CC(=O)O)C(=O)N[C@@H](CCC(=O)O)C(=O)N[C@@H](CCCCN)C(=O)N[C@@H](C)C(=O)N[C@@H](C)C(=O)N[C@@H](CCCCN)C(=O)N[C@@H](CC(=O)O)C(=O)N[C@@H](Cc1ccccc1)C(=O)N[C@H](C(=O)N[C@@H](CCC(=O)O)C(=O)N[C@@H](Cc1c[nH]c2ccccc12)C(=O)N[C@@H](CC(C)C)C(=O)N[C@@H](CC(C)C)C(=O)N[C@@H](CO)C(=O)N[C@@H](C)C(N)=O)C(C)C [Compound 17] (HELM PEPTIDE1{Y.[Aib].Q.G.T.F.T.S.D.Y.S.I.Y.L.D.E.K.A.A.K.D.F.V.E.W.L.L.S.A.[am]}$$$$V2.0)
EC50 (human GLP-1 R; Table 2): 0.011 nM
EC50 (human GLP-1 R; [3]): 0.16 nM
EC50 (human GCG R): 0.16 nM
EC50 (human GIP R; [1]): 0.091 nM
EC50 (human GIP R; [2]): 0.013 nM

CC(C)C[C@H](NC(=O)[C@H](C)NC(=O)[C@H](CCCCN)NC(=O)[C@H](CO)NC(=O)[C@H](Cc1ccc(O)cc1)NC(=O)[C@H](CC(=O)O)NC(=O)[C@H](CO)NC(=O)[C@@H](NC(=O)[C@H](Cc1ccccc1)NC(=O)[C@@H](NC(=O)CNC(=O)[C@H](CCC(N)=O)NC(=O)C(C)(C)NC(=O)[C@@H](N)Cc1ccc(O)cc1)[C@@H](C)O)[C@@H](C)O)C(=O)N[C@@H](CC(=O)O)C(=O)N[C@@H](CO)C(=O)N[C@@H](CCCCN)C(=O)N[C@@H](C)C(=O)N[C@@H](C)C(=O)N[C@@H](Cc1c[nH]cn1)C(=O)N[C@@H](CC(=O)O)C(=O)N[C@@H](Cc1ccccc1)C(=O)N[C@H](C(=O)N[C@@H](CCC(=O)O)C(=O)N[C@@H](Cc1c[nH]c2ccccc12)C(=O)N[C@@H](CC(C)C)C(=O)N[C@@H](CC(C)C)C(=O)N[C@@H](CO)C(=O)N[C@@H](C)C(N)=O)C(C)C [Compound 7] (HELM PEPTIDE1{Y.[Aib].Q.G.T.F.T.S.D.Y.S.K.A.L.D.S.K.A.A.H.D.F.V.E.W.L.L.S.A.[am]}$$$$V2.0)
EC50 (human GLP-1 R; Table 2): 0.031 nM
EC50 (human GCG R): 0.086 nM
EC50 (human GIP R; [1]): 0.42 nM

CCCCCCCCCCCCCCCC(=O)N[C@@H](CCC(=O)NCCCC[C@H](NC(=O)[C@H](CO)NC(=O)[C@H](CC(=O)O)NC(=O)[C@H](CC(C)C)NC(=O)[C@H](Cc1ccc(O)cc1)NC(=O)[C@H](CCCCN)NC(=O)[C@H](CO)NC(=O)[C@H](Cc1ccc(O)cc1)NC(=O)[C@H](CC(=O)O)NC(=O)[C@H](CO)NC(=O)[C@@H](NC(=O)[C@H](Cc1ccccc1)NC(=O)[C@@H](NC(=O)CNC(=O)[C@H](CCC(N)=O)NC(=O)C(C)(C)NC(=O)[C@@H](N)Cc1ccc(O)cc1)[C@@H](C)O)[C@@H](C)O)C(=O)N[C@@H](C)C(=O)N[C@@H](C)C(=O)N[C@@H](Cc1c[nH]cn1)C(=O)N[C@@H](CC(=O)O)C(=O)N[C@@H](Cc1ccccc1)C(=O)N[C@H](C(=O)N[C@@H](CCC(=O)O)C(=O)N[C@@H](Cc1c[nH]c2ccccc12)C(=O)N[C@@H](CC(C)C)C(=O)N[C@@H](CC(C)C)C(=O)N[C@@H](CO)C(=O)N[C@@H](C)C(N)=O)C(C)C)C(=O)O [Compound 2] (HELM PEPTIDE1{Y.[Aib].Q.G.T.F.T.S.D.Y.S.K.Y.L.D.S.K.A.A.H.D.F.V.E.W.L.L.S.A.[am]}|PEPTIDE2{[CCCCCCCCCCCCCCCC(=O)[*:2]].[gGlu]}$PEPTIDE1,PEPTIDE2,17:R3-2:R2$$$V2.0)
EC50 (human GLP-1 R; Table 2): 0.089 nM
EC50 (human GCG R): 0.046 nM
EC50 (human GIP R; [1]): 0.35 nM

CC[C@H](C)[C@H](NC(=O)[C@H](CO)NC(=O)[C@H](Cc1ccc(O)cc1)NC(=O)[C@H](CC(=O)O)NC(=O)[C@H](CO)NC(=O)[C@@H](NC(=O)[C@H](Cc1ccccc1)NC(=O)[C@@H](NC(=O)CNC(=O)[C@H](CCC(N)=O)NC(=O)C(C)(C)NC(=O)[C@@H](N)Cc1ccc(O)cc1)[C@@H](C)O)[C@@H](C)O)C(=O)N[C@@H](Cc1ccc(O)cc1)C(=O)N[C@@H](CC(C)C)C(=O)N[C@@H](CCC(=O)O)C(=O)N[C@@H](CCCCN)C(=O)N[C@@H](CCCCNC(=O)COCCOCCNC(=O)COCCOCCNC(=O)CC[C@H](NC(=O)CCCCCCCCCCCCCCCCC(=O)O)C(=O)O)C(=O)N[C@@H](C)C(=O)N[C@@H](C)C(=O)N[C@@H](CCCCN)C(=O)N[C@@H](CCC(=O)O)C(=O)N[C@@H](Cc1ccccc1)C(=O)N[C@H](C(=O)N[C@@H](CCC(=O)O)C(=O)N[C@@H](Cc1c[nH]c2ccccc12)C(=O)N[C@@H](CC(C)C)C(=O)N[C@@H](CC(C)C)C(=O)N[C@@H](CO)C(=O)N[C@@H](C)C(=O)NCC(=O)N1CCC[C@H]1C(=O)N[C@@H](CO)C(=O)N[C@@H](CO)C(=O)NCC(=O)N[C@@H](C)C(=O)N1CCC[C@H]1C(=O)N1CCC[C@H]1C(=O)N1CCC[C@H]1C(=O)N[C@@H](CO)C(N)=O)C(C)C [Compound 38] (H-Y[Aib]QGTFTSDYSIYLEKK([AEEA-AEEA-γGlu-C18 diacid])AAKEFVEWLLSAGPSSGAPPPS-NH2)
EC50 (human GLP-1 R; [3]): 0.015 nM
EC50 (human GCG R; Table 2b (most comprehensive data), average EC50, cAMP, HEK293 cells expressing human GCG R, read-out: GCG R (EC50 in nM)): 0.27 nM
EC50 (human GIP R; Table 2b (most comprehensive data), average EC50, cAMP, read-out: GIP R (EC50 in nM)): 0.064 nM
